Results from patent publication US20110301192A1, “Inhibitors of Cyclin Kinase Inhibitor p21” (The regents of the University of California, priority 2008, published 2011).
Entries after “also recorded” stand apart in the source; their conditions may differ.

Columns and labels:
kidney cancer cell lines = assay: MTT cytotoxic assay in kidney cancer cell lines (FIG. 8); assay type: cell-based; settings: kidney cancer cells; 1, 10 or 20 μM in complete media; 48 hr
Description: The kidney cancer cells were incubated in serum-free media for 16 hr and treated with vehicle (DMSO) and serum-containing complete media (CM) alone or the indicated compounds (at 1, 10 or 20 μM) in CM. After 48 hr, the MTT assay was performed as described below. The visible absorbance of each well was quantified using a microplate reader.
(§1) A 200 μL aliquot of cells (1×10^3 cells in quiescent media) was added to a 96 well plate and incubated for 18 hr at 37° C. in a humidified incubator containing 5% CO2 in air. After incubation, each condition of small molecule ligands (No. 4, 7, and 10) was added into each well for 48 hr and for synergic assay of Doxorubicin, after incubation for 6 hr with compound No. 10, Doxorubicin dissolved in DMSO was added to each of the 96 wells and incubated for 42 hr. Control cultures were treated with DMSO. After incubation, a 20 μL MTT solution (5 mg/mL in phosphate buffer) was added to each well and the incubation continued for 4 hr, after which time the solution in each well was carefully removed. The blue crystalline precipitate in each well was dissolved in DMSO 200 μL). The visible absorbance at 560 nm of each well was quantified using a microplate reader.

ACHN and A-498 cells [1] = assay: Apoptosis (PARP immunoblot) in combination with doxorubicin; assay type: cell-based, human; settings: 100 μM, after 6 h doxorubicin 0.1 and 0.25 μM for 42 h
Description: (§2) After 6 h, doxorubicin was added (0.1 and 0.25 μM) in serum containing media followed in 42 h by (a) the MTT assay as described below; and (b) immunoblotting with PARP, p21, and β-actin.
(§3) Chemiluminescence was detected using enhanced ECL.

p21 [2] = target: T1, p21 (Homo sapiens, UniProt P38936); assay: p21 ubiquitinylation (immunoprecipitation with p21 antibody, ubiquitin immunoblot); assay type: cell-based; settings: ACHN and A-498 cells; 100 μM
Description: ACHN and A-498 cells were incubated in serum-free media for 16 hr and treated or not treated with compound 10 (100 μM) for the indicated times. Cells were harvested and immunoprecipitated with p21 antibody-agarose conjugate and immuno-blotted with either p21 or ubiquitin. Ponceau-staining heavy chain of anti-p21-IgG was performed on the same lysate as loading control.
as §3

ACHN and A-498 cells [3] = assay: MTT cytotoxic assay (cell viability) in RCC cell lines; assay type: cell-based, human; settings: 10, 50 and 100 μM in complete media, 48 hr
Description: After 48 hr, the MTT assay was performed as described below. The visible absorbance of each well was quantified using a microplate reader.
ACHN and A498 human RCC cells (from ATCC) were maintained in MEM 1× media supplemented with 10% fetal bovine serum, 2 mM L-glutamine, 1 mM sodium pyruvate, 0.1 mM non-essential amino acid, and 0.75% sodium bicarbonate at 37° C. in a humidified incubator containing 5% CO2 in air.
as §1

ACHN and A-498 cells [4] = assay: Apoptosis by PARP cleavage (immunoblot) in RCC cells; settings: up to 72 h
Description: Cells were harvested and immunoblotted with p57, p27, and p21. […] Cells were harvested and immunoblotted with PARP and p21. β-actin is a gel-loading control.
Cells were washed with PBS and lysed in lysis buffer (50 mM HEPES, 1% Triton X-100, 10 mM sodium pyrophosphate, 100 mM sodium fluoride, 4 mM EDTA) at 0° C. Cell lysates were centrifuged (13,000×g, 4° C., 20 min) and the supernatants were electrophoresed and immunoblotted. For immunoprecipitation, cell lysates were incubated with p21 antibody agarose-conjugate overnight at 4° C. and immunoprecipitates were washed five times with lysis buffer. The bound proteins were eluted with SDS sample buffer and elctophoresed and immnoblotted. The membranes were blocked in 5% non-fat dry milk for 1 hr at room temperature, and probed with appropriate antibodies. Membranes were then probed with HRP-tagged anti-mouse or anti-rabbit IgG antibodies diluted 1:5,000-1:15,000 in 5% non-fat dry milk for 1 hr at room temperature. Chemiluminescence was detected using enhanced ECL.

ACHN and A-498 cells [5] = assay: MTT synergy assay with doxorubicin; assay type: cell-based, human; settings: 100 μM, after 6 h doxorubicin 0.1 and 0.25 μM for 42 h
Description: as §2, §1

p21 [6] = target: T1, p21; assay: Immunoblotting of p21 protein levels in RCC cells; assay type: cell-based; settings: serum-starved ACHN and A-498 cells; 10, 50 and 100 μM; immunoblot
Text: as §3

p21 [7] = target: T1, p21; assay: p21 stability with cycloheximide or proteasome inhibitors (immunoblot); assay type: cell-based; settings: ACHN and A-498 cells; 100 μM; with cycloheximide 10 μg/ml or proteasome inhibitors (lactacystin, LLnL, MG132, 20 μM)
Description: ACHN and A-498 cells were incubated in serum-free media for 16 hr and treated with (a) compound 10 (100 μM), cycloheximide (CHX, 10 μg/ml), or compound 10 plus CHX for the indicated time, or (b) three different proteasome inhibitors (lactascystin, 20 μM; LLnL, 20 μM; MG132, 20 μM) for 6 h and followed by incubation of compound 10 (100 μM) for the indicated time. The density ratio of p21/actin is shown. Q refers to cells incubated in serum-free media only; P refers to cells incubated with PDGF only.
as §3

p27 = assay: Immunoblotting of p27 protein levels in RCC cells; assay type: cell-based, human; settings: all concentrations examined (10, 50, 100 μM); immunoblot
Text: as §3

p57 = assay: Immunoblotting of p57 protein levels in RCC cells; assay type: cell-based, human; settings: all concentrations examined (10, 50, 100 μM); immunoblot
Text: as §3

[8] = target: T2, GST-tagged p21 recombinant protein (GST-p21) (Homo sapiens, UniProt P38936); assay: Two-step OBOC bead screening with recombinant GST-p21; assay type: binding; settings: OBOC beads, GST-p21 probe, GST-alone subtraction
T2 construct: purchased ProSpec-Tany TechnoGene Ltd. (Rehovot, Israel)
T2 sequence (P38936 whole entry): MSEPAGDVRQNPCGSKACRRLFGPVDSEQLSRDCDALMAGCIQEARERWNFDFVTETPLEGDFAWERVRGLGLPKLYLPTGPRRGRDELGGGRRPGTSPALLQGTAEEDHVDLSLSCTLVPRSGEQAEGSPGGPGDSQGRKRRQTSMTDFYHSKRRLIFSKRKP
Description: OBOC beads tethered with small molecule ligands were incubated with recombinant GST-p21 (or GST alone as control) and incubated with anti-GST antibodies conjugated with alkaline phosphatase. Blue beads in stage 2 were discarded and the true positive beads (i.e., clear beads in stage 2 which indicate binding only to p21) were picked up and submitted for MS decoding.
A two-step screening of the small molecule OBOC combinatorial library was performed using GST-tagged p21 recombinant protein (GST-p21) from ProSpec-Tany TechnoGene Ltd. (Rehovot, Israel) (FIG. 2). Screening was conducted in small disposable chromatography columns. Each screening used 25,000-30,000 beads that were first blocked with 0.1% BSA in PBS with 0.1% Tween 20 (PBST). In Stage 1 of the procedure, the beads were incubated with a 1:10,000 dilution of GST-p21, washed, incubated with anti-GST antibody conjugated with alkaline phosphatase (anti-GST-AP), washed, and incubated with the phosphatase substrate 5-bromo-4-chloro-3-indolyl-phosphate (BCIP). Beads became blue and were selected for next step. Stage 2 of the procedure was to remove the false positive beads that are interacting with GST and anti-GST-AP not p21. The beads from Stage 1 were incubated with 8 M guanidine-HCl for removing bound proteins and DMF for removing blue color followed by PBST washing and re-blocking with PBST. And then the beads were incubated with GST alone, washed, incubated with anti-GST-AP, washed, and incubated with the phosphatase substrate BCIP. From this step, the clear beads were considered true positive beads, therefore they were selected and deproteinated with 8 M guanidine-HCl prior to decoding with mass spectrometry.

T1 sequence (P38936 whole entry): as above

Row | Structure (SMILES) | cell survival / cell viability (MTT assay) (kidney cancer cell lines) | cell survival / cell viability (MTT assay) (ACHN and A-498 cells [3]) | apoptosis as measured by PARP cleavage (ACHN and A-498 cells [4]) | p21 protein levels (p21 [6]) | p27 protein levels (p27) | p57 protein levels (p57) | binding to p21 [8] | also measured
1 | Cc1ccccc1NC(=O)NC(CC(N)=O)c1ccc2c(c1)nc(-c1cccc(Oc3ccc(C(C)(C)C)cc3)c1)n2C1CCN(Cc2ccccc2)CC1 (centres unmarked) [LLW42] | dose-dependent inhibition of cell survival; also recorded: decreasing cell viability | – | – | – | – | – | – | –
2 | Cc1ccccc1NC(=O)NC(CC(N)=O)c1ccc2c(c1)nc(-c1c3ccccc3cc3ccccc13)n2CCCN1CCCCC1C (centres unmarked) [No. 10] | – | dose-dependent inhibition of cell survival; also recorded: decreased; also recorded: decreasing cell viability | increased | markedly and specifically inhibited | no affect | no affect | p21-binding | apoptosis in combination with doxorubicin (PARP immunoblot) (ACHN and A-498 cells [1]): increase in apoptosis; ubiquitinylation of p21 (p21 [2]): causes ubiquitinylation of p21; also recorded: p21 protein is bound by ubiquitin; cell survival in combination with doxorubicin (MTT assay) (ACHN and A-498 cells [5]): synergistic decrease in cell survival; also recorded: synergistic anti-proliferative activity; p21 stability (p21 [7]): decreases p21 stability via a proteasome-mediated pathway
3 | Cc1ccccc1NC(=O)NC(CC(N)=O)c1ccc2c(c1)nc(-c1cccc(Oc3ccc(C(C)(C)C)cc3)c1)n2CCCN1CCC(C)CC1 (centres unmarked) [LLW39] | dose-dependent inhibition of cell survival; also recorded: decreasing cell viability | – | – | – | – | – | – | –
4 | Cc1ccccc1NC(=O)NC(CC(N)=O)c1ccc2c(c1)nc(-c1cccc(Oc3ccc(C(C)(C)C)cc3)c1)n2CC[C@@H]1CCCN2CCCC[C@H]12 (some centres unmarked) [LLW40] | dose-dependent inhibition of cell survival; also recorded: decreasing cell viability | – | – | – | – | – | – | –
5 | Cc1ccccc1NC(=O)NC(CC(N)=O)c1ccc2c(c1)nc(-c1cccc(Oc3ccc(C(C)(C)C)cc3)c1)n2CCC1CCCCN1C (centres unmarked) [LLW38] | dose-dependent inhibition of cell survival; also recorded: decreasing cell viability | – | – | – | – | – | – | –
6 | Cc1ccc(C)c(-c2nc3cc(C(CC(N)=O)NC(=O)Nc4ccccc4C)ccc3n2CCCN2CCCCC2C)c1 (centres unmarked) [No. 7] | – | dose-dependent inhibition of cell survival; also recorded: decreased; also recorded: decreasing cell viability | increased | markedly and specifically inhibited | no affect | no affect | p21-binding | –
7 | Cc1ccc(C)c(-c2nc3cc(C(CC(N)=O)NC(=O)Nc4ccccc4C(C)(C)C)ccc3n2CCCN2CCCCC2C)c1 (centres unmarked) [No. 4] | – | dose-dependent inhibition of cell survival; also recorded: decreased; also recorded: decreasing cell viability | increased | markedly and specifically inhibited | no affect | no affect | p21-binding | –
8 | Cc1ccccc1NC(=O)NC(CC(N)=O)c1ccc2c(c1)nc(-c1cccc(Oc3ccc(C(C)(C)C)cc3)c1)n2CCCN1CCCCC1C (centres unmarked) [LLW15] | dose-dependent inhibition of cell survival; also recorded: decreasing cell viability | – | – | – | – | – | – | –
9 | CCN(CC)CCCn1c(-c2cccc(Oc3ccc(C(C)(C)C)cc3)c2)nc2cc(C(CC(N)=O)NC(=O)Nc3ccccc3C)ccc21 (centres unmarked) [LLW33] | dose-dependent inhibition of cell survival; also recorded: decreasing cell viability | – | – | – | – | – | – | –
10 | Cc1ccccc1NC(=O)NC(CC(N)=O)c1ccc2c(c1)nc(-c1cccc(Oc3ccc(C(C)(C)C)cc3)c1)n2CCCN1CCCC1 (centres unmarked) [LLW36] | dose-dependent inhibition of cell survival; also recorded: decreasing cell viability | – | – | – | – | – | – | –
